Assay results as given in patent publication US6844349B2, “Salt forms of E-2-methoxy-N-(3-{4-[3 methyl-4-(6-methyl-pyridin-3-yloxy)-phenylamino]-quinazolin-6-yl}-allyl)-acetamide and method of production” (Pfizer Inc, priority 2001, dated 2005).

Key:
[1] = crystallinity of the complexes; type: physicochemical; conditions: solid complex; i.e., substantially free of amorphous material
[2] = hygroscopic stability of the complexes; type: physicochemical; conditions: solid complex; weight changes of the active ingredient during manufacture of capsules or tablets

crystallinity [1] | hygroscopic stability [2] | SMILES
high crystallinity | substantially hygroscopically stable | COCC(=O)NC/C=C/c1ccc2ncnc(Nc3ccc(Oc4ccc(C)nc4)c(C)c3)c2c1.O=C(O)CC(=O)O.O=C(O)CC(=O)O [di-malonate, Di-malonate Complex of E-2-Methoxy-N-(3-{4-[3-methyl-4-(6-methyl-pyridin-3-yloxy)-phenylamino]-quinazolin-6-yl}-allyl)-acetamide]
high crystallinity | substantially hygroscopically stable | COCC(=O)NC/C=C/c1ccc2ncnc(Nc3ccc(Oc4ccc(C)nc4)c(C)c3)c2c1.COCC(=O)NC/C=C/c1ccc2ncnc(Nc3ccc(Oc4ccc(C)nc4)c(C)c3)c2c1.O=C(O)CCC(=O)O.O=C(O)CCC(=O)O.O=C(O)CCC(=O)O [sesquisuccinate, Sesquisuccinate Complex of E-2-Methoxy-N-(3-{4-[3-methyl-4-(6-methyl-pyridin-3-yloxy)-phenylamino]-quinazolin-6-yl}-allyl)-acetamide]
